Assays:
[1] = test system: Human embryonic stem cells E15 (hESCs); experiment: qPCR of TLR4/TLR3 ratio and Collagen I in human embryonic stem cells E15; type: cell-based; details: 500 nM, 8 days
Procedure: Human embryonic stem cells E15 (hESCs) obtained from ATCC with less than 15 passages were cultured at 37° C. in 5% CO2 in DMEM media supplemented with 15% heat inactivated FBS and 1× GlutaMax. TLRs are biomarkers of stem cell differentiation. TLR4 expression is an osteogenic biomarker and TLR3 expression is an adipogenic biomarker. […]

[2] = test system: hMSCs; experiment: Transwell migration of hMSCs to calcium phosphate matrix; type: cell-based, human
Procedure: Human MSC migration to the site of bone injury is an important part of the repair process. […] After 8 hrs, compounds were washed off the cells and cells placed in a traditional transwell migration system. The top reservoir contained serum-free DMEM and the bottom reservoir contained DMEM plus 2% FBS. After incubation overnight, non-migrated cells were removed, migrated cells (stuck in the bottom chamber) were then fixed with 70% EtOH (40 mins) and total migrated cells were counted under a microscope after staining with 1 mg/mL of crystal violet (1 hr). hMSCs treated with compound 2 (500 nM, 8 hr) induced a 10-fold greater cell migration to the matrix than DMSO-pre-treated cells under the conditions described above. In a separate experiment, matrix that was pre-coated with compound 4 (as prepared in Example 5) was placed in the bottom chamber and migration of hMSCs from the top chamber was evaluated. Compound 4-coated matrix induced a 2-fold increase in cell migration to the matrix compared to DMSO-treated cells.
hMSC migration was analyzed by using calcium phosphate matrix that had been pre-adsorbed with compounds 1 or 2 (500 nM, as described in Example 5) and studied in the transwell system (2% serum, described above). Compound 1 and 2 induced 3.5-fold and 1.9-fold more cell migration than non-coated ceramic. While non-limiting, these examples show the utility of the approach for increased cell migration and localization to the calcium phosphate ceramic matrix when compounds of the disclosure are present. Use of compounds of Formula II, IV, and VI to pre-coat the ceramic and also pretreat the cells is also of utility.

[3] = test system: hMSCs; experiment: Alcian Blue staining (chondrogenesis) in hMSCs; type: cell-based, human; details: 25 days; for effect on chondrogenesis, densitometry of cell culture images: 500 nM, TCP 5 mg/mL; for chondrogenesis (Alcian Blue staining) compared to vehicle-treated hMSCs: presence or absence of matrix
Procedure: Alcian Blue Staining: Alcian Blue staining was used to stain for the presence of chondrocytes. Alcian Blue solution (1% wt/volume, acetic acid, pH 2.5). hMSCs were cultured as described above for the Alizarin Red S Staining assay (Ex. 7) in 48-well plates. After 25 days of cell culture, cells were fixed with 4% formaldehyde (40 mins) at room temperature, stained for 1 hr followed by washing with dH2O (1 mL) until water was clear (without blue elutes). Cell culture images were taken under a microscope and quantified by densitometry.

[4] = test system: cells released from demineralized allogeneic bone chips; experiment: Allograft-derived cells cultured with compound and TCP matrix; type: cell-based; details: 500 nM, TCP matrix 5 mg/mL, 8 days
Procedure: Demineralized allogeneic bone chips were thawed at 37° C. quickly with gentle agitation, washed with Dulbecco's PBS (DPBS) and centrifuged at 600×g for 5 min at room temperature. The material was digested with a collagenase and the mixture was filtered through a 100 µm cell strainer and the remaining bone fragments were rinsed with DPBS. The released cells were centrifuged at 1,200× rpm for 5 min at room temperature, resuspended and plated in 10 mL α-MEM media plus 20% FBS plus 1×Glutmax. After three days at 37° C. and 5% CO2, the TCP matrix (5 mg/mL) was added followed by compound 1 (500 nM) (or other compounds of Formula II, IV or VI) and the cell culture media was replaced every two days with fresh media-containing compound for 8 days. Cells were harvested after 8 days for determination of ALP activity, osteogenic mRNA biomarkers (i.e., VDR and collagen I, and cell proliferation. Cell proliferation increased 2.5-fold. VDR and collagen/mRNA expression increased 4.5-fold and 2.2-fold, respectively. Similar to isolated hMSCs in the presence of matrix, allograft-derived cells also respond to the presence of compounds and matrix to afford osteogenesis. The cells can be used in implantation as described in Examples 19 and 20.

[5] = test system: hMSCs; experiment: TLR4/TLR3 mRNA expression ratio by qPCR in hMSCs; type: cell-based, human; details: 500 nM, 8 days
Excerpt: TLRs are modulators of hMSC differentiation. TLRs (TLR1-10) mRNA could be detected by qPCR in hMSCs. TLR4 is a biomarker for osteogenesis and TLR3 is a biomarker for adipogenesis. […]

[6] = Solubility in water; type: physicochemical

Row | Compound | increase of TLR4/TLR3 ratio in hESCs [1] [fold] | cell migration to compound-coated matrix compared to DMSO-treated cells ([2]; matrix pre-coated with compound in bottom chamber) [fold] | effect on chondrogenesis, densitometry of cell culture images [3] | chondrogenesis (Alcian Blue staining) compared to vehicle-treated hMSCs [3] | Cell proliferation increase [4] [fold] | VDR mRNA expression increase [4] [fold] | collagen/mRNA expression increase [4] [fold] | cell migration to matrix pre-adsorbed with compound versus non-coated ceramic ([2]; 500 nM, transwell, 2% serum) [fold] | TLR4/TLR3 ratio, compound alone [5] | solubility in water [6]
1 | CC(C)[C@H](N)C(=O)Oc1ccc(/C=C/C(O)=C2\CCC/C(=C\c3ccc(OC(=O)[C@@H](N)C(C)C)cc3)C2=O)cc1 [Compound 4, 4-((1E,3Z)-3-(3-((E)-4-((L-valyl)oxy)benzylidene)-2-oxocyclohexylidene)-3-hydroxyprop-1-en-1-yl)phenyl L-valinate] | 2 | 2 | modestly inhibitory on chondrogenesis | no increase in chondrogenesis | – | – | – | – | – | –
2 | CC(=O)N1c2ccc(C)cc2[C@H](Nc2ccc(C)cc2)C[C@@H]1C (relative stereo) [Compound 1, cis-1-acetyl-2,6-dimethyl-N-(p-methylphenyl)-1,2,3,4-tetrahydroquinolin-4-amine] | – | – | – | – | 2.5 | 4.5 | 2.2 | 3.5 | modest increase | –
3 | CC(C)[C@H](N)C(=O)Oc1ccc(C=CC(=O)C=C(O)C=Cc2ccc(OC(=O)[C@@H](N)C(C)C)cc2)cc1 [Compound 3, (2S,2′S)—O,O′-(3-hydroxy-5-oxohepta-1,3,6-triene-1,7-diyl)bis(4,1-phenylene) bis(2-amino-3-methylbutanoate)] | 2 | – | modestly inhibitory on chondrogenesis | no increase in chondrogenesis | – | – | – | – | modest increase | greater than 10 mg/mL
